According to publication PMC10095747, “Modulatory Effects of Atractylodin and β-Eudesmol on Human Cytochrome P450 Enzymes: Potential Drug-Drug Interactions” (Molecules, 2023):
Where two headings read alike, the source gives them in different places.

Tests used:
[1] = target: rCYP2C9 (Homo sapiens, UniProt P11712); experiment: luminogenic P450-Glo CYP450 inhibition assay, rCYP2C9; settings: three independent experiments
From the text: The luminescent cytochrome P450 assay was used to determine CYP450-mediated (CYP1A2, 2C9, 2C19, 2D6, and 3A4) metabolism of atractylodin and β-eudesmol. The assay consisted of each recombinant human CYP450 (rCYP450), control membranes lacking P450 activity, a luminogenic CYP450 substrate (luciferin-ME substrate for rCYP1A2, luciferin-H substrate for rCYP2C9, luciferin-H EGE substrate for rCYP2C19, luciferin-ME EGE substrate for rCYP2D6, and luciferin-IPA substrate for rCYP3A4), KPO4 buffer, luciferin free water, NADPH regeneration system, and a luciferin detection reagent. The rCYP450 enzymes were generated from a baculovirus-infected insect cell expression system. The concentrations of the recombinant CYPs used were 0.5 (rCYP1A2 and rCYP2C9), 0.25 (rCYP2C19 and rCYP2D6) or 0.2 (rCYP3A4) pmol (0.5μL) per reaction. […] A luciferin product was produced after adding 25 µL of NADPH Regeneration System (solution A, solution B, and luciferin-free water) and incubated at 37 °C for 10 (rCYP1A2 and rCYP3A4), 20 (rCYP2C19 and rCYP2C9) or 30 (rCYP2D6) minutes. The reaction was stopped and converted to a luminescent signal after adding Luciferin Detection Reagent (50 µL) and incubated at 25 °C for 20 min. The luminescence signals obtained were determined using a Varioskan® Flash microplate reader (Waltham, MA, USA). The magnitude of luminescence in all of the samples represented CYP450 activity. […] All stock solutions were diluted with luciferin-free water until the final concentration of organic solvent was less than 0.25% (v/v) of the total reaction. The concentration range of atractylodin and β-eudesmol used were 2.74–686 µM and 2.25–562 µM, respectively. […] The concentration that inhibited the activity of each rCYP450 by 50% (IC50) was calculated using Calcusyn software (Cambridge, UK). Data are reported as the median (range) of the three independent experiments.

[2] = test system: mCYP1A2; experiment: ex vivo mCYP1A2 activity in mouse liver microsomes (phenacetin O-deethylation); settings: daily oral 100 mg/kg body weight
From the text: Phenacetin and nifedipine are substrates of CYP1A2 and CYP3A11, respectively. Both substrates are converted via the CYP enzyme to paracetamol and dehydronefedipine, respectively. The concentrations of paracetamol and dehydronefedipine were used to determine the activities of mCYP1A2 and mCYP3A11. The effects of atractylodin and β-eudesmol on mCYP1A2 and mCYP3A11 activities were, respectively, determined by measuring paracetamol (mCYP1A2-dependent metabolite) and dehydronifiedipine (mCYP3A11-dependent metabolite) concentrations.
(§1) Eight-week-old male ICR (Imprinting Control Region) mice weighing 35–40 g were used to investigate the modulatory effects of atractylodin and β-eudesmol on mCYP1A2 and mCYP3A11. The study protocol was approved by the Ethics Committee for Animal Research at Thammasat University (protocol number 016/2020). All animals were obtained from Nomura Siam International Co., Ltd. (Bangkok, Thailand). The animals were acclimatized for one week before the experiments. A total of 36 mice were allocated to three groups (i) control group (3 mice), (ii) atractylodin-treated group, and (iii) β-eudesmol-treated group. For atractylodin and β-eudesmol-treated groups, animals were fed with 100 mg/kg body weight of each compound for 1, 7, 14, and 21 (3 mice for each dose). Experiments were performed under the guidelines for the care and use of laboratory animals in a controlled environment of 12 h dark/light cycle, temperature 22 ± 2 °C, and relative humidity 30–70% at the Thammasat University Animal Center. Animals were observed daily for changes in signs and symptoms by a veterinarian. Mice were allowed access to the food pellets and water ad libitum.
(§2) Mouse liver samples were cut into small pieces, and the liver microsomes were prepared as described previously. The concentrations of proteins in the microsomes were determined using Pierce™ BCA Protein Assay Kit. mCYP1A2 and mCYP3A11 activities were evaluated based on phenacetin O-deethylation and nifedipine oxidation activities, respectively. The incubation mixture of 500 µL consisted of microsomes, substrate ([…]), and NADPH. […] The final organic solvent concentration in the incubation mixture was not higher than 1%. Each experiment was repeated three times (duplicated each). Determination of the concentrations of metabolites of mCYP1A2 (paracetamol) and mCYP3A11 (dehydronifedipine) in the reaction was performed using HPLC Agilent 1260 Infinity II with mobile gradient phase between methanol and distilled water at an initial ratio of 20:80 (v:v) and UV detection (240 nm). Calibration curves for both CYP450 activities were created over a concentration range of 1–50 µM. Oxidized nifedipine concentrations were determined using HPLC as follows: UV detection at 235 nm with an isocratic mobile phase consisting of methanol and distilled water (70:30, v:v). […] In each analytical batch, quality control (QC) samples were run in duplicate at low, medium, and high concentrations. Acceptance criteria were four out of six QC analyses falling within 100 ± 15% of the nominal values.

[3] = test system: mCYP1A2; experiment: ex vivo mCYP1A2 protein expression in mouse liver microsomes (western blot); settings: daily oral 100 mg/kg body weight
From the text: as §1, §2
The microsomal protein concentration for both mCYP1A2 and […] was 25 μg protein per lane. Proteins were denatured by combining equal volumes of liver microsomes with sample buffer (1:19 (v:v) of 2-mercaptoethanol and 2x Laemmle buffer) and heating at 100 °C for 5 min. Proteins were separated using 12% SDS-PAGE according to their size characteristics before being migrated to nitrocellulose blotting membranes.

[4] = test system: mCYP3A11 mRNA; experiment: ex vivo mCYP3A11 mRNA expression in mouse livers (real-time PCR); settings: male ICR mice, daily oral 100 mg/kg body weight, vs control
From the text: as §1
Total mRNA was extracted from mouse livers using Trizol according to the manufacturer’s instructions. The concentration of mRNA was quantified by a nanodrop spectrophotometer. The First-Strand cDNA Synthesis Kit was used to generate cDNA from RNA. The CFX96 Touch Real-Time PCR Detection System was used to determine the expressions of mCYP1A2, mCYP3A11, and β-actin genes using the iTaq Universal SYBR Green Supermix. The PCR condition and the delta-delta Ct calculation were according to the previously described article. All primers used in this study were synthesized by Gibthai Co. Ltd. (Bangkok, Thailand).

Sequence of rCYP2C9 (P11712 whole entry): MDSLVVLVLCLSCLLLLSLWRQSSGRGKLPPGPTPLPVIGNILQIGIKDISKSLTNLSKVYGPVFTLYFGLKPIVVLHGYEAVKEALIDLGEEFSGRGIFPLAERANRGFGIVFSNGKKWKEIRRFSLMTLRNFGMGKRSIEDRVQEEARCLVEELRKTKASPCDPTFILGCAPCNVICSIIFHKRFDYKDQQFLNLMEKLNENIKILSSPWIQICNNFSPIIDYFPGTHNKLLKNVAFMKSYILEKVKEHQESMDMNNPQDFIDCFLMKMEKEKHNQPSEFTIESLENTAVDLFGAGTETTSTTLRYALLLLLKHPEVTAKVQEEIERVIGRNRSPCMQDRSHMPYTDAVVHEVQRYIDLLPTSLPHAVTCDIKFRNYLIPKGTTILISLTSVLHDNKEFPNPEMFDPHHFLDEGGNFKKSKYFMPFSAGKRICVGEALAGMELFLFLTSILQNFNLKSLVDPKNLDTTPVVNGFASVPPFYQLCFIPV

## C/C=C/C#CC#C/C=C/c1ccco1 [Atractylodin]
[1]; median (range)
  Median IC50 (Range) rCYP2C9: >125 µg/mL
[1]; read-out: Median IC50 (Range) rCYP2C9, median (range)
  IC50: > 686 µM
[2]; 1 day, control 11.40, 100 mg/kg
  Paracetamol concentration (mCYP1A2 activity): significantly increased
[2]; 1 day, control 11.40, listed as Atactylodin, 100 mg/kg
  Paracetamol concentration (mCYP1A2 activity): 15.80 µM
[2]; 7 days, control 12.25
  Paracetamol concentration (mCYP1A2 activity): 12.00 µM
[2]; 14 days, control 12.80
  Paracetamol concentration (mCYP1A2 activity): 14.50 µM
[2]; 21 days, control 12.90, 100 mg/kg
  Paracetamol concentration (mCYP1A2 activity): significant decrease
[2]; 21 days, control 12.90, listed as Atactylodin, 100 mg/kg
  Paracetamol concentration (mCYP1A2 activity): 10.60 µM
[3]; 1 day, control 1.5
  Protein expression ratio of mCYP1A2: 1.39
[3]; 7 days, control 1.88
  Protein expression ratio of mCYP1A2: 1.55
[3]; 14 days, control 2.42
  Protein expression ratio of mCYP1A2: 1.77
[3]; 21 days, control 2.20, 100 mg/kg
  Protein expression ratio of mCYP1A2: significantly downregulated
[3]; 21 days, control 2.20, listed as Atactylodin, 100 mg/kg
  Protein expression ratio of mCYP1A2: 1.33
[4]; 1 day
  Fold-changes of mCYP3A11 mRNA levels: 1.72 fold
[4]; 7 days
  Fold-changes of mCYP3A11 mRNA levels: 1.3 fold
[4]; 14 days
  Fold-changes of mCYP3A11 mRNA levels: 0.87 fold
[4]; 21 days
  Fold-changes of mCYP3A11 mRNA levels: 0.62 fold

## C=C1CCC[C@]2(C)CC[C@@H](C(C)(C)O)C[C@@H]12 [β-Eudesmol]
[1]; Median IC50 (Range) rCYP2C9, median (range)
  IC50: 533 µM
[2]; 1 day, control 11.40
  Paracetamol concentration (mCYP1A2 activity): 12.35 µM
[2]; 7 days, control 12.25
  Paracetamol concentration (mCYP1A2 activity): 11.80 µM
[2]; 14 days, control 12.80
  Paracetamol concentration (mCYP1A2 activity): 13.25 µM
[2]; 21 days, control 12.90, listed as β-eudesmol, 100 mg/kg
  Paracetamol concentration (mCYP1A2 activity): significantly decreased
[2]; 21 days, control 12.90, listed as β‐eudesmol, 100 mg/kg
  Paracetamol concentration (mCYP1A2 activity): 8.30 µM
[3]; 1 day, control 1.5
  Protein expression ratio of mCYP1A2: 1.06
[3]; 7 days, control 1.88
  Protein expression ratio of mCYP1A2: 1.83
[3]; 14 days, control 2.42
  Protein expression ratio of mCYP1A2: 2.05
[3]; 21 days, control 2.20, listed as β-eudesmol, 100 mg/kg
  Protein expression ratio of mCYP1A2: significantly downregulated
[3]; 21 days, control 2.20, listed as β‐eudesmol, 100 mg/kg
  Protein expression ratio of mCYP1A2: 1.00
[4]; 1 day, 100 mg/kg
  Fold-changes of mCYP3A11 mRNA levels: 2.18 fold
[4]; 7 days, 100 mg/kg
  Fold-changes of mCYP3A11 mRNA levels: 1.5 fold
[4]; 7 days, listed as β‐eudesmol, 100 mg/kg
  Fold-changes of mCYP3A11 mRNA levels: 1.50 fold
[4]; 14 days
  Fold-changes of mCYP3A11 mRNA levels: 0.96 fold
[4]; 21 days
  Fold-changes of mCYP3A11 mRNA levels: 0.78 fold
